Experimental data from patent US20230039917A1, “EXO-AZA SPIRO INHIBITORS OF MENIN-MLL INTERACTION” (Janssen Pharmaceutica NV, priority 2017, published 2023).

Each compound was assayed on MOLM14 cells (assay: Proliferation assay B (spheroid assay) MOLM14). Conditions: Homo sapiens, MOLM-14, 192 h, confluence at day 8, read-out: (3b) Spheroid assay MOLM14 (IC50(μM)) Assay B.
Format: cell-based, human
Method: 3b) Proliferation Assay B
(§1) The anti-proliferative effect of menin/MLL protein/protein interaction inhibitor test compounds was assessed in human leukemia cell lines. The cell lines MV-4-11 and MOLM14 harbor MLL translocations and express the MLL fusion proteins MLL-AF4 and MLL-AF9, respectively, as well as the wildtype protein from the second allele. […] K562 was used as a control cell line containing two MLL wildtype alleles in order to exclude compounds that display general cytotoxic effects.
(§2) MV-4-11 and MOLM14 were cultured in RPMI-1640 (Sigma Aldrich) supplemented with 10% fetal bovine serum (HyClone), 2 mM L-glutamine (Sigma Aldrich) and 50 μg/ml gentamycin (Gibco). K562 were propagated in RPMI-1640 (Sigma Aldrich) supplemented with 20% fetal bovine serum (HyClone), 2 mM L-glutamine (Sigma Aldrich) and 50 μg/ml gentamycin (Gibco).
(§3) In order to assess the anti-proliferative effects, 1,500 MV-4-11, 300 MOLM14 cells or 750 K562 cells were seeded in 200 μl media per well in 96-well round bottom, ultra-low attachment plates (Costar, catalogue number 7007). Cell seeding numbers were chosen based on growth curves to ensure linear growth throughout the experiment. Test compounds were added at different concentrations and the DMSO content was normalized to 0.3%. Cells were incubated for 8 d at 37° C. and 5% CO2. Spheroid like growth was measured in real-time by live-cell imaging (IncuCyteZOOM, Essenbio, 4× objective) acquiring images at day 8. Confluence (%) as a measure of spheroid size was determined using an integrated analysis tool.
In order to determine the effect of the test compounds over time, the confluence in each well as a measure of spheroid size, was calculated. Confluence […] at the beginning of the experiment (t=0) was used as baseline for the calculation.
Absolute IC50 values were calculated as percent change in confluence as follows:
LC=Low Control: cells treated with 1 μM of the cytotoxic agent staurosporin
HC=High Control: Mean confluence (%) (DMSO treated cells)
Effect=100−(100*(Sample−LC)/(HC−LC))
To determine the IC50 a curve is fitted to the plot of % Effect vs Log 10 compound concentration using a sigmoidal fit with a variable slope and fixing the maximum to 100% and the minimum to 0%.

IC50 [µM]	Compound
> 3.75	CNC(=O)c1ccc(NC2CC3(CCN(c4ncnc5sc(CC(F)(F)F)cc45)C3)C2)cc1NCCN(C)C (mixture of isomers) [Compound 239]
2.24	CNC(=O)c1ccc(NC2CC3(CCN(c4ncnc5sc(CC(F)(F)F)cc45)C3)C2)c(Cl)c1 (single isomer, unassigned) [Compound 68]
1.95	CN1CCN(Cc2cc(NC3CC4(CCN(c5ncnc6sc(CC(F)(F)F)cc56)C4)C3)ccc2C#N)CC1 (mixture of isomers) [Compound 225]
> 3.75	Nc1nc(N2CCC3(CC(Nc4ccc5oc(=O)[nH]c5c4)C3)C2)c2cc(CC(F)(F)F)sc2n1 (stereo not shown) [Compound 380]
> 3.75	CN(C)CCNC(=O)c1ccc(NC2CC3(CCN(c4ncnc5sc(CC(F)(F)F)cc45)C3)C2)cc1 (single isomer, unassigned) [Compound 74]
1.14	CN1CCN(c2cc(NC3CC4(CCN(c5ncnc6sc(CC(F)(F)F)cc56)C4)C3)ccc2C#N)CC1 (mixture of isomers) [Compound 240]

Same assay, conditions: confluence at day 8, read-out: (3b) Spheroid assay MOLM14 (IC50(μM)) Assay B

IC50 [µM]	Compound
> 3.75	CNC(=O)c1c(F)cc(NC2CC3(CCN(c4ncnc5sc(CC(F)(F)F)cc45)C3)C2)cc1F (single isomer, unassigned) [Compound 244]
> 3.75	O=C(c1cnc(NC2CC3(CCN(c4ncnc5sc(CC(F)(F)F)cc45)C3)C2)nc1)N1CCOCC1 (single isomer, unassigned) [Compound 259]
> 3.75	CN1CCC(c2cc(NC3CC4(CCN(c5ncnc6sc(CC(F)(F)F)cc56)C4)C3)ccc2C(=O)N2CCOCC2)CC1 (single isomer, unassigned) [Compound 233]
> 3.75	CS(=O)(=O)N1CCN(C(=O)c2ccc(NC3CC4(CCN(c5ncnc6sc(CC(F)(F)F)cc56)C4)C3)cc2)CC1 (single isomer, unassigned) [Compound 179]
> 3.75	COC1CCN(C(=O)c2ccc(NC3CC4(CCN(c5ncnc6sc(CC(F)(F)F)cc56)C4)C3)cc2)CC1 (single isomer, unassigned) [Compound 184]
> 3.75	CNC(=O)c1ccc(NC2CC3(CCN(c4ncnc5sc(CC(F)(F)F)cc45)C3)C2)cc1C1CCN(C)CC1 (single isomer, unassigned) [Compound 231]

The compounds below were run on MV-4-11 cells (assay: Proliferation assay A (spheroid assay) MV-4-11). Conditions: Homo sapiens, MV4-11, 192 h, 8 d, AUC of confluence against time, absolute IC50, read-out: (3a) Spheroid assay MV-4-11 (IC50(μM)) Assay A.
Format: cell-based
Method: 3a) Proliferation Assay A
as §1, §2
as §3, with “MOLM14” for “MOLM14 cells”, “monitored” for “measured”, “one image every four hours for 8 d.” for “images at day 8.”
In order to determine the cumulative effect of the test compounds over time, the area under the curve (AUC) in a plot of confluence against time was calculated. Confluence at the beginning of the experiment (t=0) was used as baseline for the AUC calculation.
Absolute IC50 values were calculated according to the following procedure:
% Control=(AUC sample/AUC control)*100
AUC control=mean AUC of control values (cells without compound/DMSO as vehicle control)
A non-linear curve fit was applied using the least squares (ordinary) fit method to the plot of % control versus compound concentration. Based on this, the absolute IC50 value (half maximal inhibitory concentration of the test compound causing an anti-proliferative effect of 50% relative to the vehicle control) was calculated.

IC50 [µM]	Compound
1.12	FC(F)(F)Cc1cc2c(N3CC[C@@]4(CC[C@H](NCc5ccccc5)C4)C3)ncnc2s1 (single isomer, unassigned) [Compound 6]
0.5	FC(F)(F)Cc1cc2c(N3CC[C@]4(CC[C@H](NCc5ccccc5)C4)C3)ncnc2s1 (single isomer, unassigned) [Compound 4]
0.91	CC(C)CNC1CC2(CCN(c3ncnc4sc(CC(F)(F)F)cc34)C2)C1 (stereo not shown) [Compound 50]

The compounds below were run against T1, menin.FITC-MBM1 complex (terbium chelate-labeled menin) (Homo sapiens, UniProt O00255, F410E/T541A) (assay: Menin/MLL homogenous time-resolved fluorescence (HTRF) assay). Conditions: location 1; read-out: (2) location 1 Menin HTRF assay (IC50 (nM)).
T1 construct: Menin (a.a. 1-610-6×his tag) was labeled with terbium cryptate as follows
T1 sequence (O00255 with tags, fused parts or gaps F410E/T541A): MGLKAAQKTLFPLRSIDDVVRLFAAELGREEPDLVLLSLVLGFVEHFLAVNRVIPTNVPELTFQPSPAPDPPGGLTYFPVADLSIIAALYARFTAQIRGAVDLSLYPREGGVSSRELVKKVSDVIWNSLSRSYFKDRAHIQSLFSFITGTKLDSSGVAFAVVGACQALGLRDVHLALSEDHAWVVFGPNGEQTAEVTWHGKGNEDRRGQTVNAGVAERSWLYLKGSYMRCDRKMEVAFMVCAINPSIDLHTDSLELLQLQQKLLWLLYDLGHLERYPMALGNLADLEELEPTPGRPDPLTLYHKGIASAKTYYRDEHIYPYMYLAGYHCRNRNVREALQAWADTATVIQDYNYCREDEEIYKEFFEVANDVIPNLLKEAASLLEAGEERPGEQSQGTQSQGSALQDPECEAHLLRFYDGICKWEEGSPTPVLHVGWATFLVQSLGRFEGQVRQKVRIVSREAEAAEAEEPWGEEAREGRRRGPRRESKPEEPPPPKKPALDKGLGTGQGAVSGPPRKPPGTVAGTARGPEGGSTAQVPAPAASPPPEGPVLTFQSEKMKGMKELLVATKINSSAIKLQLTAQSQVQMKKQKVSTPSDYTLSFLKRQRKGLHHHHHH
Format: binding
Method: 2) Menin/MLL Homogenous Time-Resolved Fluorescence (HTRF) Assay
To an untreated, white 384-well microtiter plate was added 40 nL 200× test compound in DMSO and 4 μL 2× terbium chelate-labeled menin (vide infra for preparation) in assay buffer (40 mM Tris.HCl, pH 7.5, 50 mM NaCl, 1 mM DTT and 0.05% Plutonic F-127). After incubation of test compound and terbium chelate-labeled menin for 5 min at ambient temperature, 4 μL2× FITC-MBM1 peptide (FITC-β-alanine-[…]-NH2) in assay buffer was added, the microtiter plate centrifuged at 1000 rpm for 1 min and the assay mixtures incubated for 15 min at ambient temperature. The relative amount of menin.FITC-MBM1 complex present in an assay mixture is determined by measuring the homogenous time-resolved fluorescence (HTRF) of the terbium/FITC donor/acceptor fluorphore pair using a BMG Pherastar plate reader (ex. 337 nm/terbium em. 490 nm/FITC em. 520 nm) at ambient temperature. The degree of fluorescence resonance energy transfer (the HTRF value) is expressed as the ratio of the fluorescence emission intensities of the FITC and terbium fluorophores (F^em 520 nm/F^em 490 nm). The final concentrations of reagents in the binding assay are 100 pM terbium chelate-labeled menin (location 1) or 600 pM terbium chelate-labeled menin (location 2), 75 nM FITC-MBM1 peptide and 0.5% DMSO in assay buffer. Dose-response titrations of test compounds are conducted using an 11 point, three-fold serial dilution scheme, starting typically at 25 μM (location 1) or starting typically at 10 μM (location 2).
Compound potencies were determined by first calculating % inhibition at each compound concentration according to equation 1:
% inhibition=((HC−LC)−(HTRF^compound−LC))/(HC−LC))*100 (Eqn 1)
Where LC and HC are the HTRF values of the assay in the presence or absence of a saturating concentration of a compound that competes with FITC-MBM1 for binding to menin, and HTRF^compound is the measured HTRF value in the presence of the test compound. HC and LC HTRF values represent an average of at least 16 replicates per plate.
% inhibition=Bottom+(Top−Bottom)/(1+10^((log IC50−log [cmpd])*h)) (Eqn 2)
Where Bottom and Top are the lower and upper asymptotes of the dose-response curve, respectively, IC50 is the concentration of compound that yields 50% inhibition of signal and h is the Hill coefficient.
Preparation of Terbium cryptate labeling of Menin: Menin (a.a. 1-610-6×his tag) was labeled with terbium cryptate as follows. 2 mg of Menin was buffer exchanged into 1× phosphate buffered saline. 16 uM Menin was incubated with 4-fold molar excess NHS-terbium cryptate (Cisbio Bioassays, Bedford, Mass.) for 2 hours at room temperature. The labeled protein was purified away from free label by running the reaction over a Superdex 200 Increase 10/300 GL column at 0.75 ml/min. Peak fractions were collected, aliquoted and frozen at −80° C.

IC50 [nM]	Compound
95.8	CC(C)CNC1CC2(CCN(c3ncnc4sc(CC(F)(F)F)cc34)C2)C1 (stereo not shown) [Compound 50]

Same assay, conditions: location 2; read-out: (2) location 2 Menin HTRF assay (IC50 (nM))

IC50 [nM]	Compound
2	O=c1[nH]c2ccc(CN[C@@H]3CCC4(C3)CN(c3ncnc5sc(CC(F)(F)F)cc35)C4)cc2o1 (single isomer, unassigned) [Compound 55]
143	CNS(=O)(=O)c1ccc(NC2CC3(CCN(c4ncnc5sc(CC(F)(F)F)cc45)C3)C2)cc1 (stereo not shown) [Compound 317]
1.2	CNC(=O)c1ccc(NC2CC3(CCN(c4ncnc5sc(CC(F)(F)F)cc45)C3)C2)c(Cl)c1 (single isomer, unassigned) [Compound 69]
91.5	O=c1[nH]c2ccc(NC3CC4(CCN(c5ncnc6sc(CC(F)(F)F)cc56)C4)C3)cc2[nH]1 (stereo not shown) [Compound 321]
8.7	Nc1nc(N2CCC3(CC(Nc4ccc5oc(=O)[nH]c5c4)C3)C2)c2cc(CC(F)(F)F)sc2n1 (stereo not shown) [Compound 380]
40.9	CNC(=O)c1ccc(N[C@@H]2CC[C@]3(CCN(c4ncnc5sc(CC(F)(F)F)cc45)C3)C2)cc1 (racemic) [Compound 136]
114	N#Cc1ccc(NC2CC3(CCN(c4ncnc5sc(CC(F)(F)F)cc45)C3)C2)nc1 (single isomer, unassigned) [Compound 174]
50.9	FC(F)(F)Cc1cc2c(N3CC4(CCC(Nc5ccc(-c6cn[nH]c6)cc5)C4)C3)ncnc2s1 (stereo not shown) [Compound 302]
1310	O=S(=O)(NC1CC2(CCN(c3ncnc4sc(CC(F)(F)F)cc34)C2)C1)c1ccccc1 (stereo not shown) [Compound 23]
